# Reference: publication doi:10.1101/2023.07.11.548539v1, “A side-by-side comparison of peptide-delivered antisense antibiotics employing different nucleotide mimics” (bioRxiv, 2023)
# Oligonucleotides are written 5' to 3', each unit as a sugar letter and its base; * is a phosphorothioate linkage, no mark a phosphodiester; rarer units and linkages stand in square brackets, end groups in braces. Plain capitals give the bases only. d = 2'-deoxy (DNA)
# How the values were obtained:
# [1] = tested on: Cy5 5'-labelled acpP target RNA (40 nt); test: Electrophoretic mobility shift assay (EMSA); assay type: binding, Salmonella enterica; details: unconjugated ASO; ASO:RNA 1.25:1 and 2.5:1, 30 min RT, native 15 % PAGE
# Method: The electrophoretic mobility shift (EMSA) assay was performed with a Cy5 5’-labelled RNA (purchased from Eurofins) encompassing the sequence spanning nucleotides −20 to +20 of acpP relative to the translation start codon. For annealing, TM buffer (10 mM Tris-HCl, 50 mM MgCl2) was used. First, 20 µM RNA was denatured by incubation at 95 °C for 5 min followed by placement on ice. Then 1 µL of RNA was added to PCR tubes containing 8 µL of water. To this 1 µL of ASOs at the indicated concentrations (25 µM or 50 µM) were added to adjust ASO:RNA ratios of 1.25:1 and 2.5:1. As untreated negative control water was added instead of ASO, while a scrambled PNA sequence served as sequence-unspecific negative control (Figure 2 and Figure S2). These mixtures were incubated for 30 min at room temperature (RT), followed by the addition of 10 µL 2x Gel Loading (GL) buffer for subsequent loading on native 15 % PAA RNA gel without urea (20 µL/sample; 6 µL of a 50 bp DNA marker + 14 µL 1x GL). The gel was run at 100-120 V for 2-3 h, concomitantly stained with ethidium bromide for 15 min and imaged on Geldoc (Isogen Life Science B.V., De Meern, the Netherlands).
# [2] = tested on: fabF (3-oxoacyl-[acyl carrier protein] synthase 2) transcript; test: RNA-seq, fabF transcript; assay type: cell-based, Salmonella enterica serovar Typhimurium strain SL1344; details: 5 µM KFF-ASO conjugate, 15 min
# Method: RNA isolation was performed using previously published protocols ([30],[31]). Bacterial overnight cultures were diluted 1:100 in fresh MHB and grown to OD600 0.5. The cultures were diluted to approximately 10^6 cfu/ml in non-cation-adjusted MHB. Afterwards, an aliquot of the bacterial solution was transferred into 5 ml low-binding tubes (LABsolute) containing the ASOs solution (adjusted such that the final concentration was 5 μM for all tested compounds). As a negative control, cells were treated with the respective volume of sterile nuclease-free water, which was used as solvent for the ASOs. […]
# Total RNA was purified from bacterial pellets using the miRNeasy Mini kit (Qiagen) according to protocol #3 described in ([30]). […] RNA concentration was measured with a NanoDrop spectrophotometer.
# (§1) For transcriptomic analyses, RNA samples were processed and subjected to RNA-seq at Core Unit SysMed (University of Würzburg, Germany). […] Sequencing of pooled libraries, spiked with 5% PhiX control library, was performed at 10 million reads/sample in single-end mode with 75 nt read length on the NextSeq 500 platform (Illumina) using High output sequencing kits. […]
# RNA-seq data analysis was performed similarly to our previous analysis of PNA activity in S. enterica ([30]). Briefly, adapters and low-quality bases (Phred quality score <10) of raw reads were trimmed using BBduk. […]
# Salmonella = test: RNA-seq, global transcriptome (PCA); assay type: cell-based, Salmonella enterica serovar Typhimurium strain SL1344; details: 5 µM KFF-ASO conjugate or peptide, 15 min; two independent RNA-seq experiments
# Method: RNA isolation was performed using previously published protocols ([30],[31]). Bacterial overnight cultures were diluted 1:100 in fresh MHB and grown to OD600 0.5. The cultures were diluted to approximately 10^6 cfu/ml in non-cation-adjusted MHB. Afterwards, an aliquot of the bacterial solution was transferred into 5 ml low-binding tubes (LABsolute) containing the ASOs solution (adjusted such that the final concentration was 5 μM for all tested compounds). As a negative control, cells were treated with the respective volume of sterile nuclease-free water, which was used as solvent for the ASOs. After incubating the samples for 15 min at 37 °C, RNAprotect Bacteria (Qiagen) was added according to the manufacturer’s instructions. Following a 10-min incubation, cells were pelleted at 4 °C and 21,100 × g for 20 min. The supernatant was discarded and pellets were either directly used or stored at –20°C (<1 day) for subsequent bacterial RNA isolation.
# Total RNA was purified from bacterial pellets using the miRNeasy Mini kit (Qiagen) according to protocol #3 described in ([30]). Briefly, cells were resuspended in 0.5 mg/ml lysozyme (Roth) in TE buffer (pH 8.0) and incubated for 5 min. Afterwards, RLT buffer supplemented with β-mercaptoethanol, and ethanol were added according to the manufacturer’s instructions. After sample loading, column wash-steps were performed according to the manual. RNA concentration was measured with a NanoDrop spectrophotometer.
# as §1, with “Germany). Sequencing was run using a previously published protocol ([31]).” for “Germany).”
# RNA-seq data analysis was performed similarly to our previous analysis of PNA activity in S. enterica ([30]). Briefly, adapters and low-quality bases (Phred quality score <10) of raw reads were trimmed using BBduk. Then the RNA-seq reads were mapped to the S. enterica serovar Typhimurium reference genome and the three plasmids pSLT SL1344, pCol1B9 SL1344, and pRSF1010 SL1344 ([37]) using BBMap (v38.18) and genomic features were assigned using the featureCounts command of the Subread (2.0.1) package ([38]). […]
# Downstream RNA-seq analysis was performed using packages from the R/Bioconductor project. Raw read counts of all conditions were imported into edgeR (v3.34.1) ([40]) and analysed for differential expression. To filter low-count reads, features with less than 1.38 counts per million (CPM) in at least 5 libraries were ignored for further analysis. […]
Substance,Hybridization to target RNA (band shift) [1],fabF transcript level [2],PCA cluster of the transcriptomic response (Salmonella)
"DNA-PTO: 10mer phosphorothioate-modified DNA antisense oligomer, sequence CTCATACTCT, targeting acpP (antisense dC*dT*dC*dA*dT*dA*dC*dT*dC*dT)",did not interact with the target mRNA,–,–
"PMO: 10mer phosphorodiamidate morpholino antisense oligomer, sequence CTCATACTCT, targeting acpP (all phosphorodiamidate morpholino (PMO))",–,Reduction,cluster 3
"PNA: 10mer peptide nucleic acid antisense oligomer, sequence CTCATACTCT, targeting acpP (all peptide nucleic acid (PNA))",–,Reduction,cluster 1
"RNA-MOE: 10mer 2'-methoxyethylated RNA antisense oligomer, sequence CTCATACTCT, targeting acpP (all 2'-MOE, backbone and methylation of C not given here)",–,–,cluster 1
"RNA-OMe: 10mer 2'-methylated RNA antisense oligomer, sequence CTCATACTCT, targeting acpP (all 2'-O-methyl, backbone and T or U not given here)",–,–,cluster 1
